The subject of data set [1] is PC-3. Description: Cytotoxicity against human PC3 cells assessed as LDH release at 25 to 100 uM after 2 hrs by ELISA. The data set is classed as cell-based. The following applies: pc-3, 2 h. In general terms: LDH in the medium is a marker of cell lysis.
Data set [2] concerns the target T1, Ephrin type-B receptor 4 (Homo sapiens, UniProt P54760).
T1 sequence (P54760 whole entry): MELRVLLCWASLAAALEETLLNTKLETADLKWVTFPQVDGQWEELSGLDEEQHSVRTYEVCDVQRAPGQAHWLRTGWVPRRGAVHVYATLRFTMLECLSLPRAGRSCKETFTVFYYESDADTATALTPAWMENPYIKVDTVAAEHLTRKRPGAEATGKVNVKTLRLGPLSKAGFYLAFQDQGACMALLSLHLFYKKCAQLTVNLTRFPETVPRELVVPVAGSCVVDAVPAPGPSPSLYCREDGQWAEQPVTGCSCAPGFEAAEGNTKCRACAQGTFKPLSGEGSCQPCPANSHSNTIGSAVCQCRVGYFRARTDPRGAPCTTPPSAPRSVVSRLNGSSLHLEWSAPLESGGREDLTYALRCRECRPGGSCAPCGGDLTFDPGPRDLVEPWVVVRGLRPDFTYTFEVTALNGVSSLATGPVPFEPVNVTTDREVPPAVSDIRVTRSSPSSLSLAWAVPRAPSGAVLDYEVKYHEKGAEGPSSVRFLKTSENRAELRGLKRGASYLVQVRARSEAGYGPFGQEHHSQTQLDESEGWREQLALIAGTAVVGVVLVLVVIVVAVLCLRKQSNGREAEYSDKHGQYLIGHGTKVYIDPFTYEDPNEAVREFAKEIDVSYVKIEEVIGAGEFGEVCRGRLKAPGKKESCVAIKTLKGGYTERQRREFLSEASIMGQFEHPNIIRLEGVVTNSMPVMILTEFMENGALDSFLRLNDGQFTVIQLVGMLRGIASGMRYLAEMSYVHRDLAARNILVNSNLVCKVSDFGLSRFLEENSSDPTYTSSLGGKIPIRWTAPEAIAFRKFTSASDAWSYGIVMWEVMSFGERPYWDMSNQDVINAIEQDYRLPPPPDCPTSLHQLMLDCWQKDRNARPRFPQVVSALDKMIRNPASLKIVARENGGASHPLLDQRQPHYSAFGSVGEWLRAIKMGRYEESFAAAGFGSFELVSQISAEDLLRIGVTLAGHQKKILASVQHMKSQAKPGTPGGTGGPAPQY
Put plainly: Displacement of ephrin-B1-Fc from EphB4 receptor Fc ectodomain (unknown origin) after 1 hr by ELISA. (In an ELISA, binding on a coated surface is turned into a signal by an enzyme label.)

Data set [3] has as its target T2, Ephrin type-B receptor 6 (Homo sapiens, UniProt O15197).
T2 sequence (O15197 whole entry): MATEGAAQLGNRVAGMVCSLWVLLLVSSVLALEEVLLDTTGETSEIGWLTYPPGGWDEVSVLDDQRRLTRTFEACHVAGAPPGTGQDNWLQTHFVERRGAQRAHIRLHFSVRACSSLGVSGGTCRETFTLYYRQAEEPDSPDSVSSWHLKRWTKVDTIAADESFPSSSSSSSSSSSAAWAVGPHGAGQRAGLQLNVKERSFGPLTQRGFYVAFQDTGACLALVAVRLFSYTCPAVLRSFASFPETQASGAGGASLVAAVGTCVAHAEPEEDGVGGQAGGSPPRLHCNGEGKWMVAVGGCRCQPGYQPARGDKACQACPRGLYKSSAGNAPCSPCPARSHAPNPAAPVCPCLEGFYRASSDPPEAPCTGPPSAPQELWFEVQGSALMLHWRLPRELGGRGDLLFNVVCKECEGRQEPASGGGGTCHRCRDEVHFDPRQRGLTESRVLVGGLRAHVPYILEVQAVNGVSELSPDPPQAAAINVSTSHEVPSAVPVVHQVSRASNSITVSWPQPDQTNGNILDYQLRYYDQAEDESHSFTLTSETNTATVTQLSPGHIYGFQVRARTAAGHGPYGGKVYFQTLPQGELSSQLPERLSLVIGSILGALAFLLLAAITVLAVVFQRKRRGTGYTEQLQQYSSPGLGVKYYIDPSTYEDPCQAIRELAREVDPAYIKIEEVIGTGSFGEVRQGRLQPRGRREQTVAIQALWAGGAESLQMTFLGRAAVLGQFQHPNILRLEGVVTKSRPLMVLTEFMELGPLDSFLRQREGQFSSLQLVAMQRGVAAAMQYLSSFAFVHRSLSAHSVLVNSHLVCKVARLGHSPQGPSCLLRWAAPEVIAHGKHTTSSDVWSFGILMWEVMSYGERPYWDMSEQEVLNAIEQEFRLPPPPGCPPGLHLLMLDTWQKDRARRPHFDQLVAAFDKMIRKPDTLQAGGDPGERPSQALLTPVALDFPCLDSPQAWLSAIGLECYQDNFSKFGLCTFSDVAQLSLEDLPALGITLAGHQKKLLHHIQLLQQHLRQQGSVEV
Description: Displacement of ephrin-B1-Fc from EphB6 receptor Fc ectodomain (unknown origin) after 1 hr by ELISA.

The target in data set [4] is Ephrin type-A receptor 7 (Homo sapiens, UniProt Q15375). Put plainly: Displacement of ephrin-A1-Fc from EphA7 receptor Fc ectodomain (unknown origin) after 1 hr by ELISA.
Sequence of Ephrin type-A receptor 7 (Q15375 whole entry, the tested form may be a part): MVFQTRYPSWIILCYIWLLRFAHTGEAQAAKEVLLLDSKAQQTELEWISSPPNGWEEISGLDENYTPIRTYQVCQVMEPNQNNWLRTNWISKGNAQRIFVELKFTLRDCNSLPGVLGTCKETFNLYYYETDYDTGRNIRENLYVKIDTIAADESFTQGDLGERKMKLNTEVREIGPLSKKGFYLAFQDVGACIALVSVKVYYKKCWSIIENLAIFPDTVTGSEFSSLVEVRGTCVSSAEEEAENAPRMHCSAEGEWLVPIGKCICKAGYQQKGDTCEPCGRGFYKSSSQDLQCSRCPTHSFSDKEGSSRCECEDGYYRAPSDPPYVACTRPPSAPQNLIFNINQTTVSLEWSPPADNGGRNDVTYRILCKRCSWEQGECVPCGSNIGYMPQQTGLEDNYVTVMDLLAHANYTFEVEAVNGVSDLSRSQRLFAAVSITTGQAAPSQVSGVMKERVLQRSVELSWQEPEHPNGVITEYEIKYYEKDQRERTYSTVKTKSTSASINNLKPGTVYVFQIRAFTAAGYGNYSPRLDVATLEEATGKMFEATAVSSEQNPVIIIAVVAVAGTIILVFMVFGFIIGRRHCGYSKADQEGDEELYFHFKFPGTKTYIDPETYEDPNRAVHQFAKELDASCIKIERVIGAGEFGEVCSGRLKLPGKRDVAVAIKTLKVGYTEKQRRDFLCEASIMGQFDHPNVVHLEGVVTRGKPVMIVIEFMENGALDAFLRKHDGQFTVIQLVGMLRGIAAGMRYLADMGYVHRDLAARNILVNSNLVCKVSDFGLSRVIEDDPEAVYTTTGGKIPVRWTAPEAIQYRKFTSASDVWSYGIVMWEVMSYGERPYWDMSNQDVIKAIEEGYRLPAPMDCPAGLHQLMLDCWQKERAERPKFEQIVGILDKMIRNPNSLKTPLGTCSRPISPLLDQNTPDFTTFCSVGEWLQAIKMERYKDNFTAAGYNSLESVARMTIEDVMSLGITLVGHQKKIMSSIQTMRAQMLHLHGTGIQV
Data set [5] addresses Ephrin type-A receptor 5 (Homo sapiens, UniProt P54756). Description: Displacement of ephrin-A1-Fc from EphA5 receptor Fc ectodomain (unknown origin) after 1 hr by ELISA.
The target of data set [6] is Ephrin type-A receptor 4 (Homo sapiens, UniProt P54764). Put plainly: Displacement of ephrin-A1-Fc from EphA4 receptor Fc ectodomain (unknown origin) after 1 hr by ELISA.
Sequence of Ephrin type-A receptor 4 (P54764 whole entry, the tested form may be a part): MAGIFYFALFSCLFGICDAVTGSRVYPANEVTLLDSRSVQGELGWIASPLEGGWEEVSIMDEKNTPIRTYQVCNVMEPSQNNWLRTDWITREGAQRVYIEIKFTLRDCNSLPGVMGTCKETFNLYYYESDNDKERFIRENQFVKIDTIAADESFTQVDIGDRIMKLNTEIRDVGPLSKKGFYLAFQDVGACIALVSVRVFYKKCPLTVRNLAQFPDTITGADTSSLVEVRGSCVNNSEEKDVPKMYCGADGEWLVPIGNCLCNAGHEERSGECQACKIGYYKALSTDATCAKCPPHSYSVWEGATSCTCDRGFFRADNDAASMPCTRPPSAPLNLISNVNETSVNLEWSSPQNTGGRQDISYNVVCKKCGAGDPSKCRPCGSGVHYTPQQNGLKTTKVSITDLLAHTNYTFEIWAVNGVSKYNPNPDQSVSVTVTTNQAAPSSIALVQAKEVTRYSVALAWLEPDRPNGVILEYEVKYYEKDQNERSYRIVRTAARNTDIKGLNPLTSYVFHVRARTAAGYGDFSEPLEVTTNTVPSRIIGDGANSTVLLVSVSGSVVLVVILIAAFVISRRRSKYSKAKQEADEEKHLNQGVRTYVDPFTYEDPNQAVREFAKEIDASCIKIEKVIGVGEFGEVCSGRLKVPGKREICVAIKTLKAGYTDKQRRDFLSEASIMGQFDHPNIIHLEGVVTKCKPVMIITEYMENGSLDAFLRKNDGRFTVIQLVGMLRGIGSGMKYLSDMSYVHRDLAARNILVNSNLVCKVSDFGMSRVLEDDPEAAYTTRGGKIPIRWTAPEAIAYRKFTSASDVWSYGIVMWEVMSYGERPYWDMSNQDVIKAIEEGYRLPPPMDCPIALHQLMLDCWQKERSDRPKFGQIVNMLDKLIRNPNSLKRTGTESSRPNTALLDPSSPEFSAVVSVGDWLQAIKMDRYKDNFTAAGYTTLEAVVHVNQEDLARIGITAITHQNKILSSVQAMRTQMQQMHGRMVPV

We go through one compound from ChEMBL document CHEMBL2321799 (J Med Chem, 2013).

Sequence of Ephrin type-A receptor 5 (P54756 whole entry, the tested form may be a part): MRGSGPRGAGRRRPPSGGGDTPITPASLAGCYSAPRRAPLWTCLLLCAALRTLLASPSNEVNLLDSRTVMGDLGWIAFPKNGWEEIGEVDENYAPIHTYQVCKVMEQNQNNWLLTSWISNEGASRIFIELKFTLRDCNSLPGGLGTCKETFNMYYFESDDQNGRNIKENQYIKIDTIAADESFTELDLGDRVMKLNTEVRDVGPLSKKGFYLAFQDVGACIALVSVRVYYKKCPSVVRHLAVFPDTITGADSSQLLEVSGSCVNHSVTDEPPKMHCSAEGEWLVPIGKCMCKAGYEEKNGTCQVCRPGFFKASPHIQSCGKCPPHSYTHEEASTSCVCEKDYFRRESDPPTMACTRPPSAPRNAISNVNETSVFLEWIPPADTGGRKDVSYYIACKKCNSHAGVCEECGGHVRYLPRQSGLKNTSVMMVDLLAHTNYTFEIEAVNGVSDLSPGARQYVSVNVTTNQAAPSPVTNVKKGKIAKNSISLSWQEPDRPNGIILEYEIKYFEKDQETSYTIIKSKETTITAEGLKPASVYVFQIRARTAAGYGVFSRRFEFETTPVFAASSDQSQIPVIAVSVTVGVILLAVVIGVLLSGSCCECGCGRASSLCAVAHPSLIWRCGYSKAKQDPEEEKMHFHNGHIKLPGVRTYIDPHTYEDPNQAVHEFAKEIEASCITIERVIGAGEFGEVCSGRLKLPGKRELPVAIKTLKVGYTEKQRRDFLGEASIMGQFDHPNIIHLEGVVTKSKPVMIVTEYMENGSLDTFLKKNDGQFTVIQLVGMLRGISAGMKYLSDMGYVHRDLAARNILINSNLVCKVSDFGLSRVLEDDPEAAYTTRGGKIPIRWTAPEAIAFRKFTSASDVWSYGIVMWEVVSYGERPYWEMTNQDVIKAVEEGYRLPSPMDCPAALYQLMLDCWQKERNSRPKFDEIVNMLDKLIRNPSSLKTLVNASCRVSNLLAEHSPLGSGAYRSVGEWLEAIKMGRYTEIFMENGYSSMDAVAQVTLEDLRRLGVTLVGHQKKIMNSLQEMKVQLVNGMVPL

The IC50 is the concentration needed to halve the response being measured. `C[C@H](CCC(=O)N[C@@H](Cc1c[nH]c2ccccc12)C(=O)O)[C@H]1CC[C@H]2[C@@H]3CC[C@@H]4C[C@H](O)CC[C@]4(C)[C@H]3CC[C@]12C`: in data set [1], the Activity entry is given as “Non-toxic”. Moreover, the IC50 was 4400 nM in data set [2]; 5800 nM in data set [3]; 2100 nM in data set [4]; 2400 nM in data set [5]; 2700 nM in data set [6].
